# Measurements from patent US8802711B2, “TRPV1 antagonists” (AbbVie Inc., priority 2011, dated 2014).
# Read-outs that look alike come from different tables or passages of the source.
# Tests used:
# [1] = biological target: T1, human TRPV1 receptor (hTRPV1) (Homo sapiens (Human), UniProt Q8NER1); test: Acid activation assay (pH 5.0, FLIPR intracellular Ca2+); assay type: cell-based; conditions: 37.5 μM antagonist, percentage of the maximal pH 5.0-induced response remaining, read-out: hTRPV1 H+ (max % remain)
# Procedure, shortened: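 Antagonism of acid-evoked Ca2+ influx measured by FLIPR Calcium-4 fluorescence after a pH 5.0 DPBS/MES stimulus, with compounds preincubated 3 min over 12 half-log concentrations. Cells: stable hTRPV1-expressing 1321N1 line, dye-loaded 90–120 min in the dark at 25 °C.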
# Sprague-Dawley rats [2] = test: Rat acute capsaicin-induced flinching behavior; assay type: in vivo; conditions: 100 μmol/kg p.o., percent reduction in number of flinching behaviors
# Source text: (§1) Adult male Sprague-Dawley rats (250-300 g body weight, Charles River Laboratories, Portage, Mich.) were used. Animal handling and experimental protocols were approved by the Institutional Animal Care and Use Committee (IACUC) at Abbott Laboratories. For all surgical procedures, animals were maintained under isoflurane anesthesia (4-5% to induce, 1-3% to maintain), and the incision sites were sterilized using a 10% povidone-iodine solution prior to and after surgeries.
# Rats were placed in individual observation cages. […] One hour after administration of the test compound, 2.5 μg of capsaicin in a 10 μL solution of 10% ethanol/90% hydroxypropyl-β-cyclodextrin was injected subcutaneously into the dorsal aspect of the right hind paw. The observation cage was then suspended above mirrors in order to facilitate observation. […] The number of flinching behaviors of the injured paw was recorded during the five minute observation period (Gilchrist, H. D.; Allard, B. L.; Simone, D. A.; Enhanced withdrawal responses to heat and mechanical stimuli following intraplantar injection of capsaicin in rats. Pain, 1996, 67, 179-188). The percent reduction in the number of flinching behaviors produced with oral administration of representative compounds of the present invention relative to control-treated animals (% effect) is reported in Table 3.
# [3] = biological target: T1, human TRPV1 receptor (hTRPV1); test: Capsaicin activation assay (FLIPR intracellular Ca2+); assay type: cell-based; conditions: inhibition of capsaicin-induced intracellular Ca2+ increase, read-out: hTRPV1 cap IC50
# Procedure, shortened: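 Antagonism measured as [Ca2+]i fluorescence on FLIPR Tetra: compounds given 3 min ahead of capsaicin, added as 200 nM (4×), to dye-loaded hTRPV1-HEK293 cells. Response taken as baseline-subtracted peak, normalized to the 50 nM capsaicin control; 12-point one-third-log titrations.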
# Sprague-Dawley rats [4] = test: Rat tail immersion assay (noxious thermosensation); assay type: in vivo; conditions: rat, 100 μmol/kg oral, one hour post dosing, 55° C. water bath, relative to vehicle
# Description: as §1
# Compounds were tested for their effects on noxious thermosensation using the tail immersion assay. Testing was performed one hour following oral administration of 100 μmol/kg of the compound in 10% ethanol/20% Tween-80/70% PEG-400 (2 mL/kg). Morphine (6 mg/kg) was administered interperitoneally (i.p.) using saline (2 mL/kg) as the vehicle. For testing, a circulating water bath was heated to 55° C. Thirty to sixty minutes post dosing, the rats were handled for a few seconds to calm them down and then cupped with their back against the tester's hand at a slight angle with head facing away from the tester. With rat in one hand and a 0.01 second stopwatch in the other hand, the tail was quickly immersed 6-8 cm in the water bath or to a distance leaving 2-3 cm of tail out of water. The timer was started simultaneously. When the rat flinched or attempted withdrawal, timer was immediately stopped and the rat's tail was quickly removed from water bath. This response latency (in seconds) was recorded. Process was repeated 3 times with 3-4 minutes between readings and the average response latency was calculated.
# For a given example, a percent increase in the average response latency (in seconds) for tail withdrawal relative to a vehicle control was determined. % increase=[(tc−tv)/tv]×100%
# tc=response latency (in seconds) with oral dosing of compounds
# tv=response latency (in seconds) with oral dosing of vehicle
# The % increases in tail withdrawal latency relative to vehicle control are divided into the following categories: […]
# Sprague-Dawley rats [5] = test: Sodium iodoacetate-induced knee joint osteoarthritic pain model; assay type: in vivo, rat; conditions: 10 mg/kg p.o., 1 hour after dosing, % return to normalcy of hind limb grip force
# Source text: as §1
# Unilateral knee joint osteoarthritis was induced in the rats by a single intra-articular (i.a.) injection of sodium iodoacetate (3 mg in 0.05 mL sterile isotonic saline) into the right knee joint cavity under light isoflurane anesthesia using a 26 G needle. […] Pain behavioral assessment of hind limb grip force was conducted by recording the maximum compressive force exerted on the hind limb strain gauge setup, in a commercially available grip force measurement system (Columbus Instruments, Columbus, Ohio), to elicit paw withdrawal. The grip force data was converted to a maximum hindlimb cumulative compressive force (CFmax) (gram force)/kg body weight for each animal. The analgesic effects of test compounds were determined 20 days following the i.a. injection of sodium iodoacetate. The vehicle control group for each compound being tested was assigned 0% whereas the age matched naïve group was assigned as being 100% (normal). The % effect for each dose group was then expressed as % return to normalcy compared to the naïve group. Test compounds were administered orally in 10% ethanol/20% Tween 80/70% polyethylene glycol-400 vehicle at a volume of 2 mL/kg. The assessment of the analgesic effects of test compounds was made 1 hour following oral administration. The assessment of the analgesic effects of test compounds can be made following a single dose or following repeated administration wherein the frequency of dosing is 1 to 2 times daily. The duration of such repeated daily dosing may last for any time greater than one day. A typical duration of repeated daily dosing is about 5 days to about 12 days.
# [6] = Table 1, HEK293 cells expressing human TRPV1
# T1 sequence (Q8NER1 whole entry): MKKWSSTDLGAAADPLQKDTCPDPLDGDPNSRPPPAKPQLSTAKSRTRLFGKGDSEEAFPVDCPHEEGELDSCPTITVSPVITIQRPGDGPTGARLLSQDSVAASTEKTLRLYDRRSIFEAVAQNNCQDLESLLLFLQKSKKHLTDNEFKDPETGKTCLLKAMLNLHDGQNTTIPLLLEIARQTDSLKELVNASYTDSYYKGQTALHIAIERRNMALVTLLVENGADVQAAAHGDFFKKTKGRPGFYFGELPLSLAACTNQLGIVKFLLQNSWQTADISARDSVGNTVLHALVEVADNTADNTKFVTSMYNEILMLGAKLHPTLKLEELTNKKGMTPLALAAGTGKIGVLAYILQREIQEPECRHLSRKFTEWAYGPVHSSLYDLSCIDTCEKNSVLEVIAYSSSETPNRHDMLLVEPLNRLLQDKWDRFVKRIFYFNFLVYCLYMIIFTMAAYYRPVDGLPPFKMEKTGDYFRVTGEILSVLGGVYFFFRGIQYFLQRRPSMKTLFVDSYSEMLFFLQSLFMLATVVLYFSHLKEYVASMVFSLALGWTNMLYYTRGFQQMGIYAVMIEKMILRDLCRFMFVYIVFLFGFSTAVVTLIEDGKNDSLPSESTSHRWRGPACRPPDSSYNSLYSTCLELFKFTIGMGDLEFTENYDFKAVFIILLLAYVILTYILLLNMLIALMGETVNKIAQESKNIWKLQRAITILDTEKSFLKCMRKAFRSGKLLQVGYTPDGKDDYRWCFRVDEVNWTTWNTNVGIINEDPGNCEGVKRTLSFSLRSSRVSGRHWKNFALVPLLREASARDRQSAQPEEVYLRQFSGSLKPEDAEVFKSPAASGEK
remaining activity at 37.5 µM ([1]; Table 1),remaining activity at 37.5 µM ([1]; Table 2),"IC50 [3, 6]",IC50 ([3]; Table 2),SMILES,% effect (Sprague-Dawley rats [2]),% Increase in tail withdrawal latency (Sprague-Dawley rats [4]),% effect (Sprague-Dawley rats [5])
56%,56%,0.013 µM,0.013 µM,"Cn1c(=O)ccc2c(NC(=O)N[C@@H]3CC[C@H](c4ccccc4)C3)cccc21 [Example 51, 1-(1-methyl-2-oxo-1,2-dihydroquinolin-5-yl)-3-((1R,3S)-3-phenylcyclopentyl)urea]",30%,−,
25%,,0.029 µM,,"O=C(Nc1cccc2[nH]ncc12)N[C@H]1CC[C@H](c2cccc(F)c2)C1 [Example 64, 1-[(1S,3S)-3-(3-fluorophenyl)cyclopentyl]-3-(1H-indazol-4-yl)urea]",,,48%
44%,,0.032 µM,,"O=C(Nc1cccc2[nH]ncc12)N[C@@H]1CC[C@H](c2ccccc2F)C1 [Example 61, 1-[(1R,3S)-3-(2-fluorophenyl)cyclopentyl]-3-(1H-indazol-4-yl)urea]",,,34%
32%,32%,0.005 µM,0.005 µM,"Cc1cc2c(NC(=O)N[C@@H]3CC[C@@H](c4ccccc4)C3)c(F)ccc2cn1 [Example 20, 1-(6-fluoro-3-methylisoquinolin-5-yl)-3-[(1R,3R)-3-phenylcyclopentyl]urea]",,−,
